{"source": "paper PMC7269146", "about": "“Jingzhaotoxin-X, a gating modifier of Kv4.2 and Kv4.3 potassium channels purified from the venom of the Chinese tarantula Chilobrachys jingzhao” (The Journal of Venomous Animals and Toxins Including …, 2020)", "key": {"[1]": {"assay": "mechanical hyperalgesia / nociceptive behavior in mice (von Frey, up-down)", "assay_type": "in vivo, mouse (male C57BL/6)", "conditions": "40 nmol/kg", "description": "In the present study, male C57BL/6 mice weighing 20-25 g were utilized. This study was performed following the Guide for the Care and Use of Laboratory Animals released by the United States National Institutes of Health (US NIH). Our study protocol was approved by the Animal Experiments Ethics Committee at Central Southern University (No. 2018-2-6). Each operation was performed under isoflurane-induced anesthesia to reduce pain and minimize animal suffering. Lumbar puncture was also conducted for intrathecal injection, as described previously. Next, the effect of JZTX-X on nociception was evaluated by assessing the behaviors during the mechanical hyperalgesia process. The JZTX-X-induced mechanical hyperalgesia was investigated by two experiments via various administration routes, including intrathecal and intraplantar injections. Then, animals were challenged via intrathecal (10 µL) or intraplantar (20 µL) injection of JZTX-X (40 nmol/kg). The control group was given a physiological solution, which contained 0.9% NaCl, […].\nMechanical hyperalgesia was measured according to the previously depicted “up-down” paradigm. Individual mice were allowed to acclimate for at least 30 min on the mesh floor in suspended chambers. After acclimatization, various calibrated von Frey filaments (Stoelting, Wood Dale, IL) were applied to all animals, which were vertical to the hind paw plantar surfaces becausethere was enough force for bending those filaments for 6 s. Later, the animal responses were recorded. The positive response was defined as paw flinching or brisk withdrawal. When there was no response, force filament at a greater level was applied. Accordingly, force ligament at a lower level was applied […]. The “up-down” approach was adopted to calculate the 50% likelihood where one withdrawal response was produced by the simple stimulus."}, "[2]": {"molecular_target": "T1, Kv4.2 (Rattus norvegicus, UniProt Q63881)", "T1 construct": "expressed in transfected cells; host or cells: HEK293t", "T1 sequence (Q63881 1-630)": "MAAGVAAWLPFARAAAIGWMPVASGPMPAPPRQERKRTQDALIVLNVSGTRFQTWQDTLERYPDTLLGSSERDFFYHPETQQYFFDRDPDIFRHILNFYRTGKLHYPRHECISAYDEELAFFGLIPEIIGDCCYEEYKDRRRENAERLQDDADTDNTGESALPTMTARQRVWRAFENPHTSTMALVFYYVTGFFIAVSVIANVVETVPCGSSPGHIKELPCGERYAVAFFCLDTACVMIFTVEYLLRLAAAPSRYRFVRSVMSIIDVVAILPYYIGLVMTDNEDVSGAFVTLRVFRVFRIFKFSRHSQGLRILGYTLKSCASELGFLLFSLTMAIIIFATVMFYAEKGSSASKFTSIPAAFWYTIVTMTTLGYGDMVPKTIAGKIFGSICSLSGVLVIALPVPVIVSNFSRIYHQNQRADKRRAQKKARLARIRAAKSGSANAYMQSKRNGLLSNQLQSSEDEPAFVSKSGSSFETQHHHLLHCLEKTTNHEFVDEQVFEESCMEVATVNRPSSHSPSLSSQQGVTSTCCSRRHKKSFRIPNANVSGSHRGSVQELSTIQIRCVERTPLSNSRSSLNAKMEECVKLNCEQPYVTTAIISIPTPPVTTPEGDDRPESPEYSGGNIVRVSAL", "assay": "paired-pulse protocol, recovery from inactivation of Kv4.2", "assay_type": "cell-based", "conditions": "n = 7", "from_the_text": "Rat cDNA genes encoding Kv4.2 (Accession: NM_031730.2) and Kv4.3 (Accession: AB003587.1) were subcloned to vector pcDNA3.1. In addition, human cDNA genes encoding Nav1.7 (Accession: DQ857292.1) and Nav1.5 (Accession: AB158469.2) were subcloned to vectors pcDNA3.1-mod and pcDNA3.1, separately. Then, Kv4.2, Kv4.3, Nav1.5 and Nav1.7 constructs were transiently transfected into the human embryonic kidney 293t (HEK293t) cells using lipofectamine 2000 (Invitrogen, USA) in accordance with manufacturer protocols. Thereafter, HEK293 cells were inoculated within Dulbecco’s modified Eagle’s medium (DMEM) containing 10% fetal bovine serum (FBS) at 5% CO2 and 37°C. The Kv4.3 channel and the Kv4.2 counterpart were then transfected in the absence of β subunit. Subsequently, cells were incubated with a DNA-lipofectamine mixture (one reporter plasmid for green fluorescence protein and channel constructs) for 4-6 h, and were washed with the fresh medium. […]\nFigure 7. […] Thereafter, those elicited peak currents in test pulses were determined and standardized based on the peak currents for conditioning pulses within the identical cell. […] ( B ) The standardized recovery data were expressed as mean ± S.E. (n = 7), plotted as a function of inter-pulse interval, and fitted to one singular exponential function."}}, "note": "Where a SMILES comes first, the peptide text is derived from it. Bridges are numbered along the chain shown (N, C = ends)."}
{"smiles": "CC(C)C[C@@H]1NC(=O)[C@H](CCCCN)NC(=O)[C@H](Cc2ccc(O)cc2)NC(=O)[C@@H]2CSSC[C@@H]3NC(=O)[C@H](Cc4ccc(O)cc4)NC(=O)[C@H](Cc4ccccc4)NC(=O)CNC(=O)[C@H](C)NC(=O)[C@H](CSSC[C@H](NC(=O)[C@@H](N)CC(C)C)C(=O)N[C@@H](CO)C(=O)N[C@@H](CCCNC(=N)N)C(=O)N[C@@H](CCC(=O)O)C(=O)NCC(=O)N[C@@H](CCC(=O)O)C(=O)N[C@@H](Cc4ccccc4)C(=O)N2)NC(=O)[C@H](CSSC[C@@H](C(=O)N[C@@H](Cc2ccc(O)cc2)C(=O)N[C@@H](CCCNC(=N)N)C(=O)N[C@@H](CC(N)=O)C(=O)O)NC(=O)[C@H](Cc2c[nH]cn2)NC(=O)[C@H](CC(C)C)NC(=O)[C@H](C(C)C)NC(=O)[C@H](Cc2ccccc2)NC(=O)[C@H](C)NC(=O)[C@H](CCCCN)NC3=O)NC(=O)[C@H](CCCCN)NC(=O)[C@H](CCCNC(=N)N)NC1=O", "note": "[JZTX-X, Jingzhaotoxin-X] (H-LCSREGEFCYKLRKCCAGFYCKAFVLHCYRN-OH; disulfide 2-16, 9-21, 15-28; N-terminus assumed)", "values": [{"measurement": "baseline threshold of tactile withdrawal", "setting": "[1]; intraplantar, n = 8", "result": "markedly decreased"}, {"measurement": "duration of reduced paw withdrawal threshold", "setting": "[1]; intrathecal or intraplantar, after cessation of treatment", "result": "at least 120 min"}, {"measurement": "spontaneous nociceptive behaviors", "setting": "[1]; intrathecal or intraplantar, n = 8", "result": "did not induce spontaneous nociceptive behaviors"}, {"measurement": "baseline threshold of tactile withdrawal", "setting": "[1]; intrathecal, n = 8", "result": "markedly decreased"}, {"measurement": "effect on recovery of Kv4.2", "setting": "[2]; paired-pulse protocol", "result": "remarkably accelerated the recovery of Kv4.2 channel inhibition"}, {"measurement": "time constant of recovery from inactivation, Kv4.2", "setting": "[2]; toxin concentration not given, control 195.3 ± 31.6 ms, P<0.05, single exponential", "result": "130.2 ± 25.3", "unit": "ms"}]}
